From ChEMBL document CHEMBL1133912, “Coupling of the antennapedia third helix to a potent antagonist of the p53/hdm2 protein-protein interaction” (Bioorg Med Chem Lett, 2001)
pIC50: −log10 of the molar value. Square brackets hold non-standard residues; d marks the D form. Peptide text beside a SMILES is read from it. Trp(6-Cl) = N[C@@H](Cc1c[nH]c2cc(Cl)ccc12)C(=O)O; Pmp = N[C@@H](Cc1ccc(CP(=O)(O)O)cc1)C(=O)O; Ac3c = NC1(C(=O)O)CC1; Aib = CC(C)(N)C(=O)O

Experiment: In vitro inhibition of binding towards of human wild-type p53 to GST-hdm2

Row | SMILES | pIC50
1 | CSCC[C@H](NC(=O)[C@H](Cc1ccccc1)NC(C)=O)C(=O)NC(C)(C)C(=O)N[C@@H](Cc1ccc(CP(=O)(O)O)cc1)C(=O)N[C@@H](Cc1c[nH]c2cc(Cl)ccc12)C(=O)N[C@@H](CCC(=O)O)C(=O)NC1(C(=O)N[C@@H](CC(C)C)C(N)=O)CC1 (Ac-FM[Aib][Pmp][Trp(6-Cl)]E[Ac3c]L-NH2) | 8.30
2 | CSCC[C@H](NC(=O)[C@H](Cc1ccccc1)NC(C)=O)C(=O)NC(C)(C)C(=O)N[C@@H](Cc1ccc(CP(=O)(O)O)cc1)C(=O)N[C@@H](C)C(=O)N[C@@H](CCC(=O)O)C(=O)NC1(C(=O)N[C@@H](CC(C)C)C(N)=O)CC1 (Ac-FM[Aib][Pmp]AE[Ac3c]L-NH2) | < 5.70
